# Assay: Olaparib sustained in cultured TNBC cells, LC-MS/MS (half-life)
# Type: in vitro ADME, human
# Details: TNBC cells (PDC No. 3 and 9) overexpressing FBI-1
# Protocol: TNBC cells transfected with plasmids were used for the pharmacokinetic experiments to examine the amount of olaparib sustained in the cells. For the cell-based experiments, cells were treated with 1 μmol/L concentration of olaparib for 12 h[33]. Then, cells were harvested at indicated time-points. For the animal experiments, TNBC cells were injected into the subcutaneous position to form subcutaneous tumor tissues. After 2–3 weeks’ growth, when the tumor volumes reached 1500–2000 mm^3, the solution of olaparib was injected into the subcutaneous tumors. Then, the tumor tissues were harvested at indicated times[34],[35]. The olaparib in cells or tumor tissues was extracted by acetonitrile (ACN), and the amount of olaparib sustained in cells or tumor tissues at each time point was determined by liquid chromatography–mass spectrometry/mass spectrometry (LC-MS/MS), following the methods established by Krens et al.[36]. The sustaining rates of olaparib were calculated as (the amount of olaparib at each time)/(the amount of olaparib at 0-time) × 100%. The sustaining curves or the half-time life (t1/2) of olaparib was obtained by the sustained rates of olaparib.
smiles,measurement,value
CC(=O)N1CCN(c2ccc(OCC3COC(Cn4ccnc4)(c4ccc(Cl)cc4Cl)O3)cc2)CC1 (stereo not shown) [ketoconazole],effect of ketoconazole on FBI-1-accelerated elimination or clearance of olaparib,almost blocked the effect of FBI-1 on olaparib in TNBC cells

# Source: paper PMC7554048, “FBI-1 enhanced the resistance of triple-negative breast cancer cells to chemotherapeutic agents via the miR-30c/PXR axis” (Cell Death & Disease, 2020)
